Test results: patent US20260132118A1, “SALT FORMS OF R-MDMA AND METHODS USING THE SAME” (EmpathBio, Inc., priority 2022, published 2026)
Several values for one entry are separate records, joined by “and”; a condition that tells them apart may be missing. Equal values may be shown once.

Tests used:
[1] = Physical stability testing: stressing solids at elevated relative humidity or storage, monitored by XRPD; type: physicochemical
[2] = Approximate aqueous solubility by aliquot addition; settings: for Solubility: approximate aqueous solubility; for Observations (solubility experiment): aqueous
Description: The small sample sizes, aliquot volumes, and kinetic nature of the solubility measurements contribute a degree of uncertainty to the reported values.

[3] = background; cited from earlier work
[4] = Dynamic Vapor Sorption (DVS); type: physicochemical; settings: for DVS weight loss: desorption 95-6% RH; for DVS weight loss / DVS weight gain: 10% RH increments, nitrogen purge; for Solid form post-DVS (XRPD): post-DVS solids; for DVS weight gain: sorption 5-95% RH
Description: DVS data was collected on a Surface Measurement System DVS Intrinsic instrument. Samples were not dried prior to analysis. […] The equilibrium criterion used for analysis was less than 0.0100% weight change in 5 minutes with a maximum equilibration time of 3 hours. Data was not corrected for the initial moisture content of the samples.

[5] = listed as O-methyl Mandelate Form A

CN[C@H](C)Cc1ccc2c(c1)OCO2.O=[N+]([O-])O [Nitrate Form A]
Physical stability upon stressing at ~90% RH ([1]; 13 days): remained physically stable | Solubility [2]: 3 ± 1 mg/mL and 3 mg/mL | Observations (solubility experiment) [2]: clear solution

CNC(C)Cc1ccc2c(c1)OCO2.Cl (centres unmarked) [MDMA hydrochloride salt]
Solubility in water (in words) [3]: soluble in water

CNC(C)Cc1ccc2c(c1)OCO2 (centres unmarked) [MDMA free base, 3,4-Methylenedioxymethamphetamine]
Solubility in water (in words) [3]: insoluble in water

CN[C@H](C)Cc1ccc2c(c1)OCO2.COC(C(=O)O)c1ccccc1 [O-Methyl Mandelate Form A]
Physical stability upon stressing at ~90% RH ([1]; 8 days): remained physically stable | DVS desorption behaviour / hysteresis ([4]; 5% to 95% RH): all mass gained in sorption was lost on desorption with minimal hysteresis | Hygroscopicity (in words) ([4]; DVS isotherm): low kinetic hygroscopicity | Kinetic hygroscopicity (sorption/desorption) ([4]; between 5% and 95% RH): 0.2% | DVS weight loss [4]: 0.21±0.02% | DVS weight loss [4, 5]: 0.21% | Solid form post-DVS (XRPD) [4]: remained unchanged | Solid form post-DVS (XRPD) [4, 5]: O-Methyl Mandelate Form A | DVS weight gain [4]: 0.18±0.02% and 0.18% | DVS weight gain [4, 5]: 0.18% | Solubility [2]: 26 ± 1 mg/mL and ~26 mg/mL | Observations (solubility experiment) [2]: clear solution
